Reference: EP1171607B1, “STREPTOKINASE FRAGMENTS AND THEIR USE FOR INHIBITING CELL DEATH” (Rabkin, Simon W., priority 1999, dated 2000)
Where no end group is shown, it is not given here.

Key:
[1] = system: TF-1; conditions: TF-1 starved 30 hours in 1% fetal calf serum; 20 µg/ml peptide
Method: (§1) The hematopoietic, growth factor dependent cell lines, M07E and TF-1 (Mijajima, CDNAX Research Institute, Palo Alto, California), were starved for 30 hours in DMEM containing 1% fetal calf serum (Hyclone, Logan, Utah) in the presence or absence of 20 µg/ml of the 20mer peptide (SEQ. ID NO. 6). Cell viability was measured by one of two methods, trypan blue exclusion or ^3H-thymidine incorporation (Alai et al., J. Biol. Chem. 267:18021-18025, 1992).

[2] = system: M07E; conditions: M07E starved 30 hours in 1% fetal calf serum; 20 µg/ml peptide
Method: as §1

SVDVEYTQFTDFRGKLTKLL [Peptide 20mer]
TRYPAN BLUE COUNTS (% VIABILITY) [1]: 29 ± 1%
TRYPAN BLUE COUNTS (% VIABILITY) [2]: 20 ± 0.5%
